Data set [1] has as its system LNCaP. The data set can be described thus: Cytotoxicity against human LNCaP cells assessed as reduction in cell proliferation by MTT assay. It is filed as functional, cell-based. (Formazan colour is commonly taken as a measure of viable cells.)
Data set [2] in a line: Cytotoxicity against human hormone nonresponsive and Castration-resistant 22Rv1 cells assessed as reduction in cell proliferation by MTT assay. It is filed as functional, cell-based, Castration-resistant 22Rv1 cell.
Data set [3] deals with DU-145. In words: Cytotoxicity against human hormone nonresponsive DU-145 cells assessed as reduction in cell proliferation by MTT assay. In kind it is functional, cell-based.
Data set [4] relates to PC-3. The data set can be described thus: Cytotoxicity against human hormone nonresponsive PC-3 cells assessed as reduction in cell proliferation by MTT assay. In kind it is functional, cell-based.
Data set [5] is described as follows: Cytotoxicity against human HFF cells assessed as reduction in cell proliferation by MTT assay. In kind it is toxicity, cell-based.

By IC50 is commonly meant the concentration that gives 50% inhibition.

For the compound `C=C1C(=O)O[C@@H]([C@@H](C)[C@H]2CC[C@H]3[C@@H]4C[C@H]5O[C@]56[C@@H](O)C=CC(=O)[C@]6(C)[C@H]4CC[C@]23C)C=C1C`, the IC50 in data set [1] was greater than 5 µM; in data set [2], greater than 5 µM; in data set [3] it was greater than 5 µM; in data set [4], 2.2 µM; in data set [5], greater than 5 µM.

In the case of `C=C1C[C@@H]([C@@H](C)[C@H]2CC[C@H]3[C@@H]4C[C@H]5O[C@]56[C@@H](O)C=CC(=O)[C@]6(C)[C@H]4CC[C@]23C)OC(=O)[C@@]12CCC1=C(C[C@@H]([C@@H](C)[C@H]3CC[C@H]4[C@@H]5C[C@H]6O[C@]67[C@@H](O)C=CC(=O)[C@]7(C)[C@H]5CC[C@]34C)OC1=O)C2`, the IC50 in data set [1] is 0.9 µM; in data set [2], 1.1 µM; in data set [3], 1 µM; in data set [4], 0.2 µM; in data set [5], 0.6 µM.

With `COc1cccc2c1C(=O)c1c(O)c3c(c(O)c1C2=O)C[C@@](O)(C(=O)CO)C[C@@H]3O[C@H]1C[C@H](N)[C@H](O)[C@H](C)O1` [DOXORUBICIN], the IC50 in data set [1] turned out to be 0.1 µM; in data set [2], 0.04 µM; in data set [3], 0.1 µM; in data set [4] it was 0.6 µM; in data set [5] it was 1.4 µM.

For `CC(=O)OCC1=C(C)C[C@H]([C@@H](C)[C@H]2CC[C@H]3[C@@H]4C[C@H]5O[C@]56[C@@H](O)C=CC(=O)[C@]6(C)[C@H]4CC[C@]23C)OC1=O`, the IC50 in data set [1] turned out to be 1.9 µM; in data set [2], 1.4 µM; in data set [3] it was 0.8 µM; in data set [4], 0.3 µM; in data set [5] it was 1.9 µM.

On to `C=C1C[C@@H]([C@@H](C)[C@H]2CC[C@H]3[C@@H]4C[C@H]5O[C@]56[C@@H](OC(=O)c5ccc([N+](=O)[O-])cc5)C=CC(=O)[C@]6(C)[C@H]4CC[C@]23C)OC(=O)[C@@]12CCC1=C(C[C@@H]([C@@H](C)[C@H]3CC[C@H]4[C@@H]5C[C@H]6O[C@]67[C@@H](OC(=O)c6ccc([N+](=O)[O-])cc6)C=CC(=O)[C@]7(C)[C@H]5CC[C@]34C)OC1=O)C2`, for which the IC50 in data set [1] was 2.3 µM; in data set [2], 1.1 µM; in data set [3] it was 1.1 µM; in data set [4], 0.2 µM; in data set [5], 0.5 µM.

Regarding `C=C1C[C@@H]([C@@H](C)[C@H]2CC[C@H]3[C@@H]4C[C@H]5O[C@]56[C@@H](OC(C)=O)C=CC(=O)[C@]6(C)[C@H]4CC[C@]23C)OC(=O)[C@@]12CCC1=C(C[C@@H]([C@@H](C)[C@H]3CC[C@H]4[C@@H]5C[C@H]6O[C@]67[C@@H](OC(C)=O)C=CC(=O)[C@]7(C)[C@H]5CC[C@]34C)OC1=O)C2`, the IC50 in data set [1] is greater than 5 µM; in data set [2], 2.6 µM; in data set [3], 3.7 µM; in data set [4], 1 µM; in data set [5], 2.5 µM.

Consider `C=C1C(=O)O[C@@H]([C@@H](C)[C@H]2CC[C@H]3[C@@H]4C[C@H]5O[C@]56[C@@H](OC(C)=O)C=CC(=O)[C@]6(C)[C@H]4CC[C@]23C)C=C1C`, for which the IC50 worked out at 1.6 µM in data set [1]; 1.5 µM in data set [2]; 2.5 µM in data set [3]; 0.4 µM in data set [4]; 2 µM in data set [5].
